Measurements from patent US11617740B2, “Chemical inhibitors of Mycobacterium tuberculosis DosRST signaling and persistence” (priority 2017, dated 2023).
“And” between values parts separate entries of the source, which are not always exact repeats. Equal values may be shown once. “Also recorded” adds a separate entry of the source.

Assays:
DosR regulon = type: cell-based; details: ΔdosR mutant, 40 μM, >2-fold; q<0.05
WT DosS heme [1] = target: T1, WT DosS heme (Mycobacterium tuberculosis, UniProt P9WGK3); test: UV-visible spectroscopy of DosS heme; type: biochemical; details: for position of DosS Soret peak after treatment: DTN-reduced DosS (430 nm), 100 μM
DosS(G117L) = DosS(G117L) (Mycobacterium tuberculosis, UniProt P9WGK3, G117L); type: biochemical
DosS(E87L) = DosS(E87L) (Mycobacterium tuberculosis, UniProt P9WGK3, E87L); type: biochemical
WT DosS heme [2] = target: T1, WT DosS heme; details: identical conditions, gradual shift to oxidized state; cited from earlier work

| Structure (SMILES) | genes downregulated in CDC1551(ΔdosR) background (DosR regulon) | position of DosS Soret peak after treatment (WT DosS heme [1]) | further results |
| --- | --- | --- | --- |
| CN(C)CCCN1C(=O)c2cccc3c(Br)ccc(c23)C1=O [HC104A] | 171 genes |  | effect on DosS UV-visible spectrum / heme redox (WT DosS heme [1]; DTN-reduced DosS, 400 μM HC104A): no change; also recorded: inhibitory activity was not observed; also recorded: no impact on the position of the Soret peak |
| [C-]#[O+].[C-]#[O+].[C-]#[O+].[C-]#[O+].[C-]#[O+].[C-]#[O+].[Cl][Ru][Cl].[Cl][Ru][Cl] [CORM-2, tricarbonylchlororuthenium(II) dimer, reference compound] |  | 422 nm |  |
| [C-]#[O+] [CO, carbon monoxide, reference compound] |  | 422 nm |  |
| O=C(Nc1ccno1)Nc1ccc(Cl)cc1Cl [HC106A] | 51 genes | 422 nm and ~420 nm | change of DosS(G117L) UV-visible spectrum (DosS(G117L)): no change to the overall spectrum; also recorded: did not change; also recorded: promoted HC106A resistance; change of DosS E87L UV-visible spectrum (DosS(E87L)): no change on overall spectrum; position of DosS(E87L) Soret peak after treatment (DosS(E87L)): 422 nm |
| C[C@@H]1CC[C@H]2[C@@H](C)C(=O)O[C@@H]3O[C@@]4(C)CC[C@@H]1[C@]32OO4 [artemisinin, reference compound] |  |  | position of DosS Soret peak after treatment (earlier work) (WT DosS heme [2]): 403 nm |
